This passage reports IC50 and Ki results from patent publication US10428083B2, “Heterocyclylmethyl-thienouracile as antagonists of the adenosine-A2B-receptor” (BAYER PHARMA AKTIENGESELLSCHAFT, priority 2015, dated 2019).

Assay [1] addresses T1, human adenosine A2b receptor (Homo sapiens (Human), UniProt P29275). Nature of the assay: Cellular in vitro reporter gene test for A2b receptor activity (CHO-K1, CRE-luciferase, NECA stimulation). In kind it is cell-based. The settings on record: recombinant CHO-K1 cell line, CRE-luciferase reporter, antagonism of EC50 concentration of NECA; in some cases means of several determinations, rounded to two significant figures; read-out: A2b receptor IC50. In outline:
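CHO-K1 cells with CRE-driven luciferase; antagonists co-incubated with NECA at its EC50, determined in a pre-experiment on each test day. Luciferase read by luminescence 3 h after NECA addition.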
In general terms: Reporter assays use an easily measured gene product as a stand-in for the process of interest.

Assay [2] has as its target T1, human adenosine A2b receptor. The assay is described as follows: Adenosine receptor radioligand binding assay, A2b ([3H]-CPX, HEK293 membranes). The settings on record: radioligand [3H]-CPX, HEK293 membrane preparation; Cheng-Prusoff. The protocol:
(§1) B-2. Adenosine Receptor Binding Assays
(§2) The binding properties of the test compounds on adenosine receptors were determined in binding studies with radioligands. For this purpose, membrane preparations of the human adenosine receptor subtypes were produced from cell lines having recombinant receptor expression (CHO cells for the A1 receptor, HEK293 cells for the A2a, A2b and A3 receptors). The following radioligands were used in the experiments: [^3H]-DPCPX for the A1 receptor, [^3H]-CGS 21680 for the A2a receptor, [^3H]-CPX for the A2b receptor and [^125I]-AB-MECA for the A3 receptor. The test substances were each tested in 8 different concentrations and 2 repeat tests per concentration. The displacement of the particular radioligand by the test compound was expressed as percentage inhibition of the specific binding of the controls. The IC50 values (concentration which brings about half-maximum inhibition of the specific binding of the controls) and the Hill coefficients (nH) were determined by a non-linear regression analysis, using the competition curves obtained from the mean values of the repeat tests and conducting a curve fit according to the Hill equation: Y=D+[A−D/1+(C/C50)^nH] (Y=specific binding; A=left-hand asymptote of the curve; D=right-hand asymptote of the curve; C=substance concentration; C50=IC50; nH=rise factor).
(§3) The inhibition constant (Ki) was calculated by the Cheng-Prusoff equation: Ki=IC50/(1+L/KD) (L=concentration of the radioligand in the assay; KD=receptor affinity of the radioligand for the receptor, determined with a Scatchard plot). [Literature: A1 receptor: Townsend-Nicholson, A. and Schofield, P. R., J. Biol. Chem. 269: 2373-2376 (1994); A2a receptor: Luthin, D. R. et al., Mol. Pharmacol. 47: 307-313 (1995); A2b receptor: Stehle, J. H. et al., Mol. Endocrinol. 6: 384-393 (1992) and Linden et al., Mol. Pharmacol. 56: 705-713 (1999); A3 receptor: Salvatore, C. A. et al., Proc. Natl. Acad. Sci. U.S.A. 90: 10365-10369 (1993) and Jacobson, K. A. et al., Neuropharmacology 36: 1157-1165 (1997)].
(§4) Table 2 below lists the Ki values thus determined from these binding assays for representative working examples: […]

For assay [3], the target named is human adenosine A1 receptor (Homo sapiens (Human), UniProt P30542). Nature of the assay: Adenosine receptor radioligand binding assay, A1 ([3H]-DPCPX, CHO membranes). The settings on record: radioligand [3H]-DPCPX, CHO membrane preparation; Cheng-Prusoff. The protocol:
as §1, §2, §3, §4

The target of assay [4] is human adenosine A2a receptor (Homo sapiens (Human), UniProt P29274). The assay is described as follows: Adenosine receptor radioligand binding assay, A2a ([3H]-CGS 21680, HEK293 membranes). The settings on record: radioligand [3H]-CGS 21680, HEK293 membrane preparation; Cheng-Prusoff. On the procedure: as §1, §2, §3, §4
Assay [5] addresses human adenosine A3 receptor (Homo sapiens (Human), UniProt P0DMS8). Nature of the assay: Adenosine receptor radioligand binding assay, A3 ([125I]-AB-MECA, HEK293 membranes). The settings on record: radioligand [125I]-AB-MECA, HEK293 membrane preparation; Cheng-Prusoff. The protocol: as §1, §2, §3, §4

T1 sequence (P29275 whole entry): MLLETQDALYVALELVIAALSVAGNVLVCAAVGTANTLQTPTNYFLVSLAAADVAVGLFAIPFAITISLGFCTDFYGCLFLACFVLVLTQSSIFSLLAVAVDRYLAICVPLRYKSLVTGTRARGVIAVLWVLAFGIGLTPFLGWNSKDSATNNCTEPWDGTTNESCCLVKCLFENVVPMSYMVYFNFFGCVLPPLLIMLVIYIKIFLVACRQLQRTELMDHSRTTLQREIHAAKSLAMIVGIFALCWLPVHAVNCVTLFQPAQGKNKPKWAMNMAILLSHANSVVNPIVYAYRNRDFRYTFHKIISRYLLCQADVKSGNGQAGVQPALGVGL
human adenosine A1 receptor, sequence (P30542 whole entry): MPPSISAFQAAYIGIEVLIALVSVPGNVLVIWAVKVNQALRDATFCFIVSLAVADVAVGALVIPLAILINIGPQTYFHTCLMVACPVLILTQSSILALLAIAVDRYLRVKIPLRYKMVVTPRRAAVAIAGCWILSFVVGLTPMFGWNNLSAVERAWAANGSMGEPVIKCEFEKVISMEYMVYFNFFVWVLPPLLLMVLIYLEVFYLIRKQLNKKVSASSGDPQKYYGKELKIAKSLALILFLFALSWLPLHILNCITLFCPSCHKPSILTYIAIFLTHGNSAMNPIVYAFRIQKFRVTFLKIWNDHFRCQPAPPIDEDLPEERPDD
human adenosine A2a receptor, sequence (P29274 whole entry): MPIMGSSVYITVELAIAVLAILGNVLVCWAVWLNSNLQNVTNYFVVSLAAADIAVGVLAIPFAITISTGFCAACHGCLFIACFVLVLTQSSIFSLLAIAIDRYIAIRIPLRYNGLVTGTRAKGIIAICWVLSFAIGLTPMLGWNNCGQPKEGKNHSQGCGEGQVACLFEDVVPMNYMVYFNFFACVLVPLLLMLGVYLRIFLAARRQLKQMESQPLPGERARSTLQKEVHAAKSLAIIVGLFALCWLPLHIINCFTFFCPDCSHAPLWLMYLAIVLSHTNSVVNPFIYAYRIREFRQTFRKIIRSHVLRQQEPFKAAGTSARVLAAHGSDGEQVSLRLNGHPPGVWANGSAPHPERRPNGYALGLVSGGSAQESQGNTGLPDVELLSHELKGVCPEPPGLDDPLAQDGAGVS
human adenosine A3 receptor, sequence (P0DMS8 whole entry): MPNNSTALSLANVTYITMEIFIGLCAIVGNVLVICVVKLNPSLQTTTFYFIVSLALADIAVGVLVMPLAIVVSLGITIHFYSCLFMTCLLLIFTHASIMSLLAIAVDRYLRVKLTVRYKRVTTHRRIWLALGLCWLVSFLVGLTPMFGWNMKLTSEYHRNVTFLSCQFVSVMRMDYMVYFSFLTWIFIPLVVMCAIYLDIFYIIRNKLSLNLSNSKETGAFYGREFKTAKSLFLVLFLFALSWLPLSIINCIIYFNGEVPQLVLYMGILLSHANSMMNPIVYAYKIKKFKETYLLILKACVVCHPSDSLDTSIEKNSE

As to `CCn1c(=O)c2c(C)c(Cn3cn[nH]c3=O)sc2n(CCC(F)(F)F)c1=O` [Example 116, 3-Ethyl-5-methyl-6-[(5-oxo-1,5-dihydro-4H-1,2,4-triazol-4-yl)methyl]-1-(3,3,3-trifluoropropyl)thieno[2,3-d]pyrimidine-2,4(1H,3H)-dione], the IC50 – broadly, the midpoint of a concentration-inhibition curve – in assay [1] turned out to be 24 nM. Further, the Ki (commonly a measure of affinity in units of concentration, obtained from inhibition or displacement) was found to be 12 nM in assay [2], 3300 nM in assay [3], 790 nM in assay [4] and 330 nM in assay [5].

Take `CCn1c(=O)c2c(C)c(Cn3nc[nH]c3=O)sc2n(CCC(F)(F)F)c1=O` [Example 113, 3-Ethyl-5-methyl-6-[(5-oxo-4,5-dihydro-1H-1,2,4-triazol-1-yl)methyl]-1-(3,3,3-trifluoropropyl)thieno[2,3-d]pyrimidine-2,4(1H,3H)-dione]: the concentration for half-maximal inhibition (IC50) in assay [1] was determined as 8.1 nM. The Ki in assay [2] came to 6.4 nM; in assay [3], 1500 nM; in assay [4] it was 1700 nM.

In the case of `CCn1c(=O)c2c(C)c(CN3CCNC3=O)sc2n(CC(C)OC)c1=O` (racemic) [Example 62, 3-Ethyl-1-(2-methoxypropyl)-5-methyl-6-[(2-oxoimidazolidin-1-yl)methyl]thieno[2,3-d]pyrimidine-2,4(1H,3H)-dione (racemate)], the IC50 in assay [1] was determined as 72 nM.

In the case of `Cc1c(Cn2nc[nH]c2=O)sc2c1c(=O)n(CC(C)(C)C)c(=O)n2CC1CCCO1` (single isomer, unassigned) [Example 431, 3-(2,2-Dimethylpropyl)-5-methyl-6-[(5-oxo-4,5-dihydro-1H-1,2,4-triazol-1-yl)methyl]-1-(tetrahydrofuran-2-ylmethyl)thieno[2,3-d]pyrimidine-2,4(1H,3H)-dione], in assay [1], the IC50 was 740 nM.

Consider `Cc1c(CN2CCNC2=O)sc2c1c(=O)n(CC(F)F)c(=O)n2CC1CCO1` (racemic) [Example 216, 3-(2,2-Difluoroethyl)-5-methyl-1-(oxetan-2-ylmethyl)-6-[(2-oxoimidazolidin-1-yl)methyl]thieno[2,3-d]pyrimidine-2,4(1H,3H)-dione], for which, in assay [1], the IC50 stood at 34 nM.

With `Cc1c(CN2CCNC2=O)sc2c1c(=O)n(C(C)C)c(=O)n2CCF` [Example 182, 1-(2-Fluoroethyl)-3-isopropyl-5-methyl-6-[(2-oxoimidazolidin-1-yl)methyl]thieno[2,3-d]pyrimidine-2,4(1H,3H)-dione], the IC50 in assay [1] came to 9 nM.

Consider `CCn1c(=O)c2c(C)c(CN3CCNC3=NC(=O)OC)sc2n(CCC(F)(F)F)c1=O` [Example 370, Methyl [1-{[3-ethyl-5-methyl-2,4-dioxo-1-(3,3,3-trifluoropropyl)-1,2,3,4-tetrahydrothieno[2,3-d]pyrimidin-6-yl]methyl}imidazolidin-2-ylidene]carbamate], for which, in assay [1], the IC50 was found to be 2 nM.

Take `COC(C)Cn1c(=O)c2c(C)c(CN3CCNC3=NC#N)sc2n(CCC(F)(F)F)c1=O` (single isomer, unassigned) [Example 456, [1-{[3-(2-Methoxypropyl)-5-methyl-2,4-dioxo-1-(3,3,3-trifluoropropyl)-1,2,3,4-tetrahydrothieno[2,3-d]pyrimidin-6-yl]methyl}imidazolidin-2-ylidene]cyanamide]: in assay [1], the IC50 is 15 nM.

Turning to `COCCn1c(=O)n(CCF)c(=O)c2c(C)c(CN3CCNC3=O)sc21` [Example 97, 3-(2-Fluoroethyl)-1-(2-methoxyethyl)-5-methyl-6-[(2-oxoimidazolidin-1-yl)methyl]thieno[2,3-d]pyrimidine-2,4(1H,3H)-dione], the IC50 in assay [1] worked out at 18 nM.

Turning to `CCn1c(=O)c2c(C)c(CN3CCNC3=S)sc2n(CC2CCCCO2)c1=O` (racemic) [Example 36, 3-Ethyl-5-methyl-1-(tetrahydro-2H-pyran-2-ylmethyl)-6-[(2-thioxoimidazolidin-1-yl)methyl]thieno[2,3-d]pyrimidine-2,4(1H,3H)-dione (racemate)], the IC50 in assay [1] came to 38 nM.

On to `Cc1c(CN2CCN(C(C)C)C(=O)C2=O)sc2c1c(=O)n(CC(C)C)c(=O)n2CCCF` [Example 496, 1-(3-Fluoropropyl)-3-isobutyl-6-[(4-isopropyl-2.3-dioxopiperazin-1-yl)methyl]-5-methylthieno[2,3-d]pyrimidine-2,4(1H,3H)-dione], for which the IC50 in assay [1] came to 120 nM.

As for `CCn1c(=O)c2c(C)c(CN3CCNC3=NC(=O)OC)sc2n(CC2CCCO2)c1=O` (single isomer, unassigned) [Example 375, Methyl [1-{[3-ethyl-5-methyl-2,4-dioxo-1-(tetrahydrofuran-2-ylmethyl)-1,2,3,4-tetrahydrothieno[2,3-d]pyrimidin-6-yl]methyl}imidazolidin-2-ylidene]carbamate], in assay [1], the IC50 was 6.3 nM.

Consider `CCn1c(=O)c2c(C)c(Cn3c(C)c[nH]c3=O)sc2n(CCC(F)(F)F)c1=O` [Example 251, 3-Ethyl-5-methyl-6-[(5-methyl-2-oxo-2,3-dihydro-1H-imidazol-1-yl)methyl]-1-(3,3,3-trifluoropropyl)thieno[2,3-d]pyrimidine-2,4(1H,3H)-dione], for which the IC50 in assay [1] amounted to 1.3 nM.

For `Cc1c(CN2CCNC2=O)sc2c1c(=O)n(CC(F)F)c(=O)n2CC1COC1` [Example 222, 3-(2,2-Difluoroethyl)-5-methyl-1-(oxetan-3-ylmethyl)-6-[(2-oxoimidazolidin-1-yl)methyl]thieno[2,3-d]pyrimidine-2,4(1H,3H)-dione], in assay [1], the IC50 came out at 13 nM.

Turning to `Cc1c(CN2CCNC2=O)sc2c1c(=O)n(CC(F)F)c(=O)n2CC1CCO1` (single isomer, unassigned) [Example 217, 3-(2,2-Difluoroethyl)-5-methyl-1-(oxetan-2-ylmethyl)-6-[(2-oxoimidazolidin-1-yl)methyl]thieno[2,3-d]pyrimidine-2,4(1H,3H)-dione], the IC50 in assay [1] was 79 nM.

For `CCn1c(=O)c2c(C)c(Cn3[nH]ccc3=O)sc2n(CC2CCCO2)c1=O` (single isomer, unassigned) [Example 131, 3-Ethyl-5-methyl-6-[(5-oxo-2,5-dihydro-1H-pyrazol-1-yl)methyl]-1-(tetrahydrofuran-2-ylmethyl)thieno[2,3-d]pyrimidine-2,4(1H,3H)-dione], the IC50 in assay [1] came out at 180 nM.

On to `Cc1c(Cn2[nH]ccc2=O)sc2c1c(=O)n(C(C)C)c(=O)n2CCC(F)(F)F` [Example 132, 3-Isopropyl-5-methyl-6-[(5-oxo-2,5-dihydro-1H-pyrazol-1-yl)methyl]-1-(3,3,3-trifluoropropyl)thieno[2,3-d]pyrimidine-2,4(1H,3H)-dione], for which, in assay [1], the IC50 worked out at 20 nM.

For the compound `C=CCCn1c(=O)c2c(C)c(CN3CCNC3=O)sc2n(CCOC)c1=O` [Example 316, 3-(But-3-en-1-yl)-1-(2-methoxyethyl)-5-methyl-6-[(2-oxoimidazolidin-1-yl)methyl]thieno[2,3-d]pyrimidine-2,4(1H,3H)-dione], the IC50 in assay [1] worked out at 1.3 nM.

Consider `Cc1c(CN2CCNC2=O)sc2c1c(=O)n(CC(C)C)c(=O)n2CC1CCCO1` (single isomer, unassigned) [Example 198, 3-Isobutyl-5-methyl-6-[(2-oxoimidazolidin-1-yl)methyl]-1-(tetrahydrofuran-2-ylmethyl)thieno[2,3-d]pyrimidine-2,4(1H,3H)-dione], for which the IC50 in assay [1] was 8.9 nM.

On to `CCn1c(=O)c2c(C)c(CN3CCNC3=NC(=O)OC)sc2n(CC2CCO2)c1=O` (single isomer, unassigned) [Example 372, Methyl [1-{[3-ethyl-5-methyl-1-(oxetan-2-ylmethyl)-2,4-dioxo-1,2,3,4-tetrahydrothieno[2,3-d]pyrimidin-6-yl]methyl}imidazolidin-2-ylidene]carbamate], for which the IC50 in assay [1] is 27 nM.

Consider `CCn1c(=O)c2c(C)c(CN3CCNC3=O)sc2n(CCOC2CC2)c1=O` [Example 178, 1-[2-(Cyclopropyloxy)ethyl]-3-ethyl-5-methyl-6-[(2-oxoimidazolidin-1-yl)methyl]thieno[2,3-d]pyrimidine-2,4(1H,3H)-dione], for which the IC50 in assay [1] came out at 21 nM.
